Test results as given in the supplement of paper PMC10307832.

Columns and labels:
Assay in all cases: relative viability (nuclei count vs DMSO), 5 days (fraction); higher = more cells survive
[1] = compound: C1CNCCC1C2=CC(=NN2)C3=CC=NC=C3 + Nc1ncn([C@H]2C[C@H](O)[C@@H](CO)O2)c(=O)n1 [Decitabine] (partner 2 µM)
Summary of the method: (§1)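 Relative viability equals treated-well nuclei counts divided by vehicle-well nuclei counts. Counts came from 4× images of lung cancer cell lines grown in 1536-well plates for 5 days after pin-tool dosing on the day after seeding. Dosing used one drug alone or a fixed anchor-drug dose plus five library-drug doses (not always all listed) in √10 steps, and values are medians of duplicate plates.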

[2] = compound: C[C@@H](N)c1ccc(C(=O)Nc2ccnc3[nH]ccc23)cc1 + O=C(c1cc(Cc2n[nH]c(=O)c3ccccc23)ccc1F)N1CCN(C(=O)C2CC2)CC1 [Olaparib] (partner 8 µM)
Summary of the method: as §1

[3] = compound: O[C@H]1CC[C@H](Nc2ncc3nc(Nc4c(F)cc(F)cc4F)n([C@H]4CCOC4)c3n2)CC1 [Tanzisertib] + C[C@@H](Oc1cc(-c2cnn(C3CCNCC3)c2)cnc1N)c1c(Cl)ccc(F)c1Cl [Crizotinib] (partner 1 µM)
Summary of the method: as §1

[4] = compound: O[C@H]1CC[C@H](Nc2ncc3nc(Nc4c(F)cc(F)cc4F)n([C@H]4CCOC4)c3n2)CC1 [Tanzisertib] + C[C@]1(O)C[C@@H](c2nc(-c3ccc4ccc(-c5ccccc5)nc4c3)c3c(N)nccn32)C1 [Linsitinib] (partner 1 µM)
Summary of the method: as §1

Row | Cell Line | relative viability ([1]; first compound 0.08 µM) | relative viability ([1]; first compound 0.8 µM) | relative viability ([1]; first compound 2.53 µM) | relative viability ([1]; first compound 8 µM) | relative viability ([2]; first compound 0.04 µM) | relative viability ([2]; first compound 0.1265 µM) | relative viability ([2]; first compound 0.4 µM) | relative viability ([2]; first compound 4 µM) | relative viability ([3]; first compound 0.08 µM) | relative viability ([3]; first compound 0.253 µM) | relative viability ([3]; first compound 0.8 µM) | relative viability ([3]; first compound 2.53 µM) | relative viability ([3]; first compound 8 µM) | relative viability ([4]; first compound 0.08 µM) | relative viability ([4]; first compound 0.253 µM) | relative viability ([4]; first compound 0.8 µM) | relative viability ([4]; first compound 2.53 µM) | relative viability ([4]; first compound 8 µM) | relative viability ([2]; first compound 1.265 µM)
1 | HOP-62 | 0.226 | 0.234 | 0.205 | 0.201 | 0.43 | 0.381 | 0.419 | 0.47 | 0.945 | 0.964 | 1 | 1.05 | 0.824 | 0.924 | 1.14 | 1.13 | 1.04 | 0.918 | –
2 | LC-2-ad | 0.682 | 0.791 | 0.868 | 0.789 | 0.744 | 0.693 | 0.646 | 0.478 | 0.521 | 0.501 | 0.415 | 0.43 | 0.426 | 0.94 | 0.838 | 0.921 | 0.812 | 0.796 | 0.647
3 | LCLC-97TM1 | 0.232 | 0.283 | 0.214 | 0.262 | 0.416 | 0.429 | 0.342 | 0.342 | – | 0.331 | 0.417 | 0.262 | 0.427 | – | 0.18 | 0.192 | 0.186 | 0.2 | 0.526
4 | LCLC-103H | 0.767 | 0.735 | 0.755 | 0.642 | 0.8 | 0.748 | 0.769 | 0.628 | 1.06 | 1.01 | 1.11 | 1.09 | 1.01 | 0.928 | 0.994 | 0.917 | 1.06 | 1.11 | 0.827
5 | LK-2 | – | 0.237 | 0.404 | 0.358 | 0.732 | 0.658 | 0.746 | 0.864 | 0.233 | 0.271 | 0.232 | 0.244 | 0.235 | 0.522 | 0.519 | 0.724 | 0.624 | 0.637 | 0.482
6 | LOU-NH91 | 0.84 | 0.851 | 0.832 | 0.79 | 0.824 | 0.911 | 0.875 | 0.593 | 0.716 | 0.734 | 0.723 | 0.464 | 0.593 | 0.996 | 0.906 | 0.996 | 0.842 | 0.627 | 0.74
7 | LU99A | 0.857 | 0.982 | 0.919 | 0.842 | – | 0.231 | 0.253 | 0.281 | 0.557 | 0.567 | 0.513 | 0.638 | 0.586 | 0.557 | 0.481 | 0.505 | 0.523 | 0.537 | 0.275
8 | LXF-289 | 0.349 | 0.35 | 0.395 | 0.371 | 1.12 | 1.05 | 1.16 | 0.901 | 0.935 | 0.734 | 0.836 | 0.815 | 0.854 | 1.04 | 0.916 | 1.04 | 0.995 | 1.04 | 1.23
9 | NCI-H23 | 0.306 | – | 0.301 | 0.377 | 0.311 | 0.335 | 0.368 | 0.3 | 0.568 | 0.553 | 0.554 | 0.601 | 0.598 | 0.614 | 0.497 | 0.535 | 0.627 | 0.638 | –
10 | NCI-H322M | 0.67 | 0.645 | 0.736 | 0.872 | 0.862 | 0.944 | 0.901 | 0.979 | 0.779 | 0.928 | 0.832 | 0.882 | 0.709 | 1 | 0.891 | 0.795 | 0.88 | 1.02 | 1.01
11 | NCI-H358 | 0.224 | 0.226 | 0.21 | 0.217 | 0.625 | 0.628 | 0.69 | 0.479 | 0.748 | 0.716 | 0.511 | 0.506 | 0.485 | 0.771 | 0.662 | 0.76 | 0.782 | 0.566 | 0.696
12 | NCI-H441 | 0.226 | 0.255 | 0.243 | 0.248 | 0.544 | 0.505 | 0.539 | 0.35 | 0.94 | 0.811 | 0.505 | 0.647 | 0.78 | 0.626 | 0.607 | 0.634 | 0.553 | 0.454 | 0.562
13 | NCI-H460 | 0.379 | 0.608 | 0.554 | 0.474 | 0.342 | 0.429 | 0.521 | 0.571 | 1.06 | 0.897 | 0.978 | 0.923 | 0.791 | 0.982 | 0.706 | 0.738 | 0.783 | 0.525 | 0.579
14 | NCI-H520 | 0.445 | 0.519 | 0.518 | 0.498 | 0.359 | 0.332 | 0.29 | 0.318 | 0.862 | 0.821 | 0.745 | 0.68 | 0.863 | 1.19 | 1.11 | 0.941 | 0.832 | 0.927 | 0.373
15 | NCI-H596 | 1.03 | 1.25 | 0.922 | 1.21 | 0.63 | 0.698 | 0.723 | 0.763 | 0.979 | 1.05 | 0.955 | 0.988 | 0.902 | 1.19 | 0.956 | 1.11 | 1.12 | 1.02 | 0.749
16 | NCI-H647 | 0.296 | 0.378 | 0.338 | 0.392 | 0.668 | 0.615 | 0.602 | 0.474 | 1.12 | 0.975 | 1.09 | 1.14 | 1.01 | 1.17 | 1.29 | 1.12 | 1.24 | 1.3 | 0.478
17 | NCI-H650 | 0.284 | 0.322 | 0.341 | 0.303 | – | 0.385 | 0.433 | 0.325 | 0.725 | 0.686 | 0.712 | 0.881 | 0.636 | 0.949 | 0.918 | 0.92 | 1.2 | 0.366 | –
18 | NCI-H661 | 0.549 | 0.57 | 0.541 | 0.541 | 0.734 | 0.722 | 0.895 | 0.597 | 1.04 | 0.939 | – | 1.02 | 0.991 | 0.657 | 0.495 | 0.619 | 0.477 | 0.599 | 0.706
19 | NCI-H727 | 0.872 | 0.865 | 0.871 | 0.952 | 0.64 | 0.738 | 0.8 | 0.742 | 0.797 | 0.853 | 0.787 | 1.02 | 0.832 | 0.358 | 0.32 | 0.322 | 0.38 | 0.249 | 0.771
20 | NCI-H838 | 0.431 | 0.441 | 0.46 | 0.451 | 0.789 | 0.826 | 0.658 | 0.283 | 0.892 | 0.849 | 0.875 | 0.88 | 0.885 | 1.02 | 0.997 | 1 | 1.01 | 0.919 | 0.397
21 | NCI-H1355 | 0.374 | 0.36 | 0.395 | 0.354 | 0.723 | 0.75 | 0.877 | 0.696 | 1.12 | 1.11 | 1.06 | 1.08 | 1.06 | 0.785 | 0.826 | 0.923 | 0.858 | 0.777 | 0.709
22 | NCI-H1437 | 0.574 | 0.573 | 0.624 | 0.602 | 0.649 | 0.678 | 0.636 | 0.645 | 1.07 | 0.89 | 0.94 | 1.01 | 0.919 | 1.14 | 0.981 | 1.11 | 1.13 | 0.971 | 0.632
23 | NCI-H1651 | 0.586 | 0.566 | 0.686 | 0.501 | 0.195 | 0.174 | 0.179 | 0.221 | 0.851 | 0.817 | 0.882 | 0.833 | 0.921 | 0.956 | 0.837 | 1.05 | 1.05 | 0.854 | 0.24
24 | NCI-H1666 | 0.697 | 0.747 | 0.762 | 0.728 | 0.786 | 0.764 | 0.856 | 0.906 | 0.902 | 0.934 | 1.09 | 1.03 | 1.09 | 0.834 | 0.862 | 0.832 | 0.777 | 0.933 | 0.825
25 | NCI-H1734 | 0.452 | 0.524 | 0.488 | 0.497 | 0.642 | 0.591 | 0.652 | 0.45 | 0.743 | 0.658 | 0.72 | 0.738 | 0.599 | 1.09 | 0.902 | 0.861 | 0.871 | 0.87 | 0.559
26 | NCI-H1755 | 0.712 | 0.717 | 0.692 | 0.641 | 0.91 | 0.963 | 0.873 | 0.743 | 0.85 | 0.821 | 0.863 | 0.839 | 0.777 | 0.989 | 0.997 | 0.975 | 0.953 | 0.892 | 0.839
27 | NCI-H1792 | 0.553 | 0.398 | 0.551 | 0.514 | 0.419 | 0.523 | 0.564 | 0.319 | 1.03 | 1.05 | 1.04 | 0.879 | 0.87 | 0.552 | 0.562 | 0.623 | 0.497 | 0.478 | 0.383
28 | NCI-H1915 | 0.267 | 0.249 | 0.26 | 0.263 | – | 0.229 | 0.26 | 0.216 | 0.929 | 0.91 | 0.862 | 0.904 | 0.856 | 1.07 | 1.14 | 1.08 | 1.01 | 1.11 | –
